Columns and labels:
barnyardgrass [1] = experiment: Test B pre-/postemergence herbicide test; assay type: in vivo, Echinochloa crus-galli; settings: for Plant response rating (0 to 100 scale), Barnyardgrass: 0 is no effect, preemergence; for Barnyardgrass plant response rating: postemergence
How it was run: (§1)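 Greenhouse pot assay with simultaneous preemergence (treated seed) and postemergence (2–18 cm seedlings) applications of surfactant-containing, non-phytotoxic solvent formulations. Response scored visually 13–15 days later on a 0–100 scale, 100 meaning complete control.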

Surinam grass = experiment: Test B pre-/postemergence herbicide test; assay type: in vivo, Urochloa decumbens; settings: for Plant response rating (0 to 100 scale), Surinam Grass: 0 is no effect, 100 is complete control, preemergence; for Surinam Grass plant response rating: scale 0 (no effect) to 100 (complete control)
How it was run: (§2)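 Herbicidal effect was judged by eye on a 0–100 scale after plants stood 13 to 15 days in the greenhouse following pre- or postemergence treatment with surfactant-containing formulations.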

cocklebur = experiment: Test B pre-/postemergence herbicide test; assay type: in vivo, Xanthium strumarium; settings: for Plant response rating (0 to 100 scale), Cocklebur: 0 is no effect, preemergence; for Cocklebur plant response rating: postemergence
How it was run: as §1

corn = experiment: Test B pre-/postemergence herbicide test; assay type: in vivo, Zea mays; settings: for Plant response rating (0 to 100 scale), Corn: 0 is no effect, preemergence; for Corn plant response rating: postemergence
How it was run: as §2

large crabgrass = experiment: Test B pre-/postemergence herbicide test; assay type: in vivo, Digitaria sanguinalis; settings: for Plant response rating (0 to 100 scale), Crabgrass, Large: 0 is no effect, preemergence; for Crabgrass, Large plant response rating: postemergence
How it was run: as §2

giant foxtail = experiment: Test B pre-/postemergence herbicide test; assay type: in vivo, Setaria faberi; settings: for Plant response rating (0 to 100 scale), Foxtail, Giant: 0 is no effect, preemergence; for Foxtail, Giant plant response rating: postemergence
How it was run: as §2

lambsquarters = experiment: Test B pre-/postemergence herbicide test; assay type: in vivo, Chenopodium album; settings: for Lambsquarters plant response rating: scale 0 (no effect) to 100 (complete control); for Plant response rating (0 to 100 scale), Lambsquarters: 0 is no effect, 100 is complete control, preemergence
How it was run: as §2

morningglory = experiment: Test B pre-/postemergence herbicide test; assay type: in vivo, Ipomoea coccinea; settings: for Plant response rating (0 to 100 scale), Morningglory: 0 is no effect, 100 is complete control, preemergence; for Morningglory plant response rating: scale 0 (no effect) to 100 (complete control)
How it was run: as §1

pigweed = experiment: Test B pre-/postemergence herbicide test; assay type: in vivo, Amaranthus retroflexus; settings: for Plant response rating (0 to 100 scale), Pigweed: 0 is no effect, 100 is complete control, preemergence; for Pigweed plant response rating: scale 0 (no effect) to 100 (complete control)
How it was run: as §2

velvetleaf = experiment: Test B pre-/postemergence herbicide test; assay type: in vivo, Abutilon theophrasti; settings: for Plant response rating (0 to 100 scale), Velvetleaf: 0 is no effect, 100 is complete control, preemergence; for Velvetleaf plant response rating: scale 0 (no effect) to 100 (complete control)
How it was run: as §2

blackgrass = experiment: Test B postemergence herbicide test; assay type: in vivo, Alopecurus myosuroides; settings: postemergence
How it was run: (§3)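 Greenhouse test; postemergence application to plants at 1–4 leaves (2–18 cm); paddy species at 2 leaves; evaluated visually vs controls at 13–15 days; scale 0–100 (100 = complete control).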

wheat = experiment: Test B postemergence herbicide test; assay type: in vivo, Triticum aestivum; set-up: key to Wheat plant response rating: 0 = no effect, 100 = complete control
How it was run: (§4)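 Scale 0–100: zero equals no visible effect, 100 complete control, judged by eye relative to controls. Timing: 13 to 15 days in greenhouse post-treatment. Growth stage at spraying: two leaves (paddy) or one to four leaves, 2–18 cm (postemergence).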

wild oat = experiment: Test B postemergence herbicide test; assay type: in vivo, Avena fatua; settings: scale 0 (no effect) to 100 (complete control)
How it was run: as §4

rice = experiment: Test B flooded paddy test; assay type: in vivo, Oryza sativa; settings: 1000 g ai/ha, scale 0 to 100 (0 no effect, 100 complete control)
How it was run: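 Treated at 2-leaf (paddy) or 1–4-leaf, 2–18 cm (postemergence); greenhouse 13–15 d; visual score vs control, 0 none to 100 complete control; dash = not tested.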

[2] = system: small flower umbrella sedge; experiment: Test B flooded paddy test; assay type: in vivo, Cyperus difformis; settings: 1000 g ai/ha, scale 0 to 100 (0 no effect, 100 complete control)
How it was run: as §3

ducksalad = experiment: Test B flooded paddy test; assay type: in vivo, Heteranthera limosa; settings: 1000 g ai/ha, scale 0 to 100 (0 no effect, 100 complete control)
How it was run: as §3

barnyardgrass [3] = experiment: Test B flooded paddy test; assay type: in vivo, Echinochloa crus-galli; settings: 1000 g ai/ha, scale 0 to 100 (0 no effect, 100 complete control)
How it was run: as §3

[4] = 125 g ai/ha, 100 is complete control
[5] = 125 g ai/ha, visual rating, scale 0 (no effect) to 100 (complete control)
[6] = 500 g ai/ha, scale 0 to 100, 0 is no effect, 100 is complete control
[7] = 125 g ai/ha, visual rating, postemergence
[8] = 125 g ai/ha, visual rating, scale 0 (no effect) to 100 (complete control), postemergence
[9] = 500 g ai/ha, scale 0 to 100, 0 no effect, 100 complete control, preemergence
[10] = Postemergence, 500 g ai/ha, scale 0 (no effect) to 100 (complete control)

SMILES: CCc1nn(C(C)(C)C)nc1C(=O)Nc1cccc(C(=O)N2CC=CC2)c1 [Compound 366]
- Plant response rating (0 to 100 scale), Barnyardgrass (barnyardgrass [1]; [4]): 70
- Barnyardgrass plant response rating (barnyardgrass [1]; [5]): 10
- Barnyardgrass plant response rating (barnyardgrass [1]; [6]): 10
- Plant response rating (0 to 100 scale), Surinam Grass (Surinam grass; 125 g ai/ha): 30
- Surinam Grass plant response rating (Surinam grass; [7]): 10
- Plant response rating (0 to 100 scale), Cocklebur (cocklebur; [4]): 0
- Cocklebur plant response rating (cocklebur; [5]): 30
- Cocklebur plant response rating (cocklebur; [6]): 50
- Plant response rating (0 to 100 scale), Corn (corn; [4]): 40
- Corn plant response rating (corn; [5]): 10
- Corn plant response rating (corn; [6]): 20
- Plant response rating (0 to 100 scale), Crabgrass, Large (large crabgrass; [4]): 40
- Crabgrass, Large plant response rating (large crabgrass; [5]): 10
- Crabgrass, Large plant response rating (large crabgrass; [6]): 20
- Plant response rating (0 to 100 scale), Foxtail, Giant (giant foxtail; [4]): 50
- Foxtail, Giant plant response rating (giant foxtail; [5]): 20
- Foxtail, Giant plant response rating (giant foxtail; [6]): 40
- Lambsquarters plant response rating (lambsquarters; [7]): 80
- Plant response rating (0 to 100 scale), Morningglory (morningglory; 125 g ai/ha): 30
- Plant response rating (0 to 100 scale), Pigweed (pigweed; 125 g ai/ha): 70
- Pigweed plant response rating (pigweed; [7]): 50
- Plant response rating (0 to 100 scale), Velvetleaf (velvetleaf; 125 g ai/ha): 0
- Velvetleaf plant response rating (velvetleaf; [7]): 10
- Blackgrass plant response rating (blackgrass; [5]): 40
- Blackgrass plant response rating (blackgrass; [6]): 50
- Wheat plant response rating (wheat; [8]): 20
- Wheat plant response rating (wheat; [9]): 90
- Oat, Wild plant response rating (wild oat; [7]): 40
- Rice plant response rating (rice): 70
- Sedge, Umbrella plant response rating [2]: 90
- Ducksalad plant response rating (ducksalad): 100
- Barnyardgrass plant response rating (barnyardgrass [3]): 80

SMILES: CCNC(=O)c1ccc(F)c(NC(=O)c2nn(C(C)(C)CC)nc2CC)c1 [Compound 370]
- Plant response rating (0 to 100 scale), Barnyardgrass (barnyardgrass [1]; [4]): 10
- Barnyardgrass plant response rating (barnyardgrass [1]; [5]): 0
- Barnyardgrass plant response rating (barnyardgrass [1]; [6]): 0
- Plant response rating (0 to 100 scale), Surinam Grass (Surinam grass; 125 g ai/ha): 0
- Surinam Grass plant response rating (Surinam grass; [7]): 10
- Surinam Grass plant response rating (Surinam grass; Postemergence, 500 g ai/ha): 10
- Plant response rating (0 to 100 scale), Cocklebur (cocklebur; [4]): 0
- Cocklebur plant response rating (cocklebur; [5]): 0
- Cocklebur plant response rating (cocklebur; [6]): 0
- Plant response rating (0 to 100 scale), Corn (corn; [4]): 0
- Corn plant response rating (corn; [5]): 10
- Corn plant response rating (corn; [6]): 10
- Plant response rating (0 to 100 scale), Crabgrass, Large (large crabgrass; [4]): 10
- Crabgrass, Large plant response rating (large crabgrass; [5]): 10
- Crabgrass, Large plant response rating (large crabgrass; [6]): 10
- Plant response rating (0 to 100 scale), Foxtail, Giant (giant foxtail; [4]): 0
- Foxtail, Giant plant response rating (giant foxtail; [5]): 0
- Foxtail, Giant plant response rating (giant foxtail; [6]): 20
- Plant response rating (0 to 100 scale), Lambsquarters (lambsquarters; 125 g ai/ha): 80
- Lambsquarters plant response rating (lambsquarters; [7]): 0
- Lambsquarters plant response rating (lambsquarters; Postemergence, 500 g ai/ha): 20
- Plant response rating (0 to 100 scale), Morningglory (morningglory; 125 g ai/ha): 0
- Morningglory plant response rating (morningglory; [7]): 10
- Morningglory plant response rating (morningglory; Postemergence, 500 g ai/ha): 20
- Plant response rating (0 to 100 scale), Pigweed (pigweed; 125 g ai/ha): 40
- Pigweed plant response rating (pigweed; [7]): 0
- Pigweed plant response rating (pigweed; Postemergence, 500 g ai/ha): 30
- Plant response rating (0 to 100 scale), Velvetleaf (velvetleaf; 125 g ai/ha): 0
- Velvetleaf plant response rating (velvetleaf; [7]): 10
- Velvetleaf plant response rating (velvetleaf; Postemergence, 500 g ai/ha): 20
- Blackgrass plant response rating (blackgrass; [5]): 0
- Blackgrass plant response rating (blackgrass; [6]): 10
- Wheat plant response rating (wheat; [8]): 0
- Wheat plant response rating (wheat; [9]): 0
- Wheat plant response rating (wheat; [10]): 0
- Oat, Wild plant response rating (wild oat; [7]): 0
- Oat, Wild plant response rating (wild oat; Postemergence, 500 g ai/ha): 0
- Rice plant response rating (rice): 30
- Sedge, Umbrella plant response rating [2]: 40
- Ducksalad plant response rating (ducksalad): 60
- Barnyardgrass plant response rating (barnyardgrass [3]): 0

SMILES: CCOC(=O)c1ccc(F)c(NC(=O)c2nn(C(C)(C)CC)nc2CC)c1 [Compound 373]
- Plant response rating (0 to 100 scale), Barnyardgrass (barnyardgrass [1]; [4]): 0
- Barnyardgrass plant response rating (barnyardgrass [1]; [5]): 10
- Barnyardgrass plant response rating (barnyardgrass [1]; [6]): 20
- Plant response rating (0 to 100 scale), Surinam Grass (Surinam grass; 125 g ai/ha): 0
- Surinam Grass plant response rating (Surinam grass; [7]): 10
- Surinam Grass plant response rating (Surinam grass; Postemergence, 500 g ai/ha): 20
- Plant response rating (0 to 100 scale), Cocklebur (cocklebur; [4]): 0
- Cocklebur plant response rating (cocklebur; [5]): 10
- Cocklebur plant response rating (cocklebur; [6]): 30
- Plant response rating (0 to 100 scale), Corn (corn; [4]): 0
- Corn plant response rating (corn; [5]): 0
- Corn plant response rating (corn; [6]): 20
- Plant response rating (0 to 100 scale), Crabgrass, Large (large crabgrass; [4]): 0
- Crabgrass, Large plant response rating (large crabgrass; [5]): 10
- Crabgrass, Large plant response rating (large crabgrass; [6]): 10
- Plant response rating (0 to 100 scale), Foxtail, Giant (giant foxtail; [4]): 0
- Foxtail, Giant plant response rating (giant foxtail; [5]): 20
- Foxtail, Giant plant response rating (giant foxtail; [6]): 30
- Plant response rating (0 to 100 scale), Lambsquarters (lambsquarters; 125 g ai/ha): 0
- Lambsquarters plant response rating (lambsquarters; [7]): 20
- Lambsquarters plant response rating (lambsquarters; Postemergence, 500 g ai/ha): 30
- Plant response rating (0 to 100 scale), Morningglory (morningglory; 125 g ai/ha): 0
- Morningglory plant response rating (morningglory; [7]): 20
- Morningglory plant response rating (morningglory; Postemergence, 500 g ai/ha): 20
- Plant response rating (0 to 100 scale), Pigweed (pigweed; 125 g ai/ha): 0
- Pigweed plant response rating (pigweed; [7]): 50
- Pigweed plant response rating (pigweed; Postemergence, 500 g ai/ha): 70
- Plant response rating (0 to 100 scale), Velvetleaf (velvetleaf; 125 g ai/ha): 0
- Velvetleaf plant response rating (velvetleaf; [7]): 20
- Velvetleaf plant response rating (velvetleaf; Postemergence, 500 g ai/ha): 30
- Blackgrass plant response rating (blackgrass; [5]): 0
- Blackgrass plant response rating (blackgrass; [6]): 10
- Wheat plant response rating (wheat; [8]): 0
- Wheat plant response rating (wheat; [9]): 0
- Wheat plant response rating (wheat; [10]): 10
- Oat, Wild plant response rating (wild oat; [7]): 10
- Oat, Wild plant response rating (wild oat; Postemergence, 500 g ai/ha): 30
- Rice plant response rating (rice): 0
- Sedge, Umbrella plant response rating [2]: 20
- Ducksalad plant response rating (ducksalad): 0
- Barnyardgrass plant response rating (barnyardgrass [3]): 20

— patent US20060069132A1, “Azolecarboxamide herbicides” (priority 2004, published 2006)
